Assay results as given in US8481521B2, “Methods of treating cell proliferative disorders” (Rigel Pharmaceuticals, Inc., priority 2005, dated 2013).
In brackets after ≈: the same amount, converted by molar mass. Read-outs that look alike come from different tables or passages of the source.

Columns and labels:
[1] = Solubility of drug and phosphate prodrug; type: physicochemical
Description: In contrast, Compound 4 is highly polar at neutral pH. Measured solubility values are consistent with the predicted cLogD values at pH=7.5.

[2] = system: TEL-Syk-transformed cells; assay: Proliferation (DNA content) and differentiation of TEL-Syk-transformed pre-B cells; type: cell-based
Experimental: Cells were cultured for 3 days in the absence of IL-7 and analyzed for the expression of kappa LC by FACS. Experiments showing the inhibition of proliferation of Syk-transformed cells by a Syk inhibitory compound are described in […]., Abe, A., and Jumaa, H., “The protein tyrosine kinase Syk is involved in malignant transformation and leukemia development,” (manuscript in preparation). The experiments described in the manuscript are briefly summarized below. Aberrant Syk variants resulting from chromosomal translocation Tel-Syk were tested for its ability to transform pre-B cells by retrovirally transducing freshly isolated bone marrow pre-B cells with IRES-GFP vectors expressing Tel-Syk. […] Transformation of the pre B cells by Tel-Syk activity was confirmed by injecting the TEL-SYK transduced cells into RAG/γC-/- mice, which led to animals presenting symptoms of myelodysplastic disease. […] To test whether inhibition of Syk activity in the cells transformed with Tel-Syk block cell proliferation, the effect of Syk kinase inhibitor 2,4-pyrimidinediamine compound IV was tested in vitro by examining the DNA content of treated cells.

[3] = system: Myc-transformed pre-B cells; assay: Proliferation (DNA content) of Myc-transformed pre-B cells; type: cell-based; details: 36 hours, 2 μM
Description: FIG. 2A is a FACS profile of pre-B cells that were transduced with Myc expression vectors and cultured in the absence of IL-7 for 1 week.
To determine the effect of Syk inhibitor on proliferation of leukemic cells, several tumorigenic pre-B cell lines that induce leukemia after injection into mice were used. Because tumorigenic cells need the pre-B cell receptor (pre-BCR) for proliferation, and Syk is a critical protein for pre-BCR signaling cascade, it is expected that Syk inhibitors will inhibit proliferation of these tumorigenic pre-B cells. […] Cells were injected into […] mice to examine their ability to proliferate in vivo.

[4] = system: tumorigenic SLP-65−/− pre-B cell lines; assay: Proliferation (DNA content) of tumorigenic SLP-65-/- pre-B cell lines; type: cell-based; details: 36 hours, 2 μM
[5] = Pharmacokinetics in NOD-SCID mice after PO VII calcium salt (plasma VI); type: in vivo; parameters: T-max (Compound VI in plasma): unit not given here
Experimental: Initial PK data in NOD-SCID mice was generated in an intial study prior to dosing in this study.
Due to precipitates observed in on-study formulations prepared in the initial study and other studies, additional PK data was obtained using remaining dosing solutions after study termination. NOD-SCID female mice (n=4) were dosed with 40 mg/kg dose solution of VII and plasma obtained at 1 hour post dose.
Table 5A and 5B: PO administration of VII Calcium Salt: Mean Concentration of Compound VI in Plasma (ng/mL).

[6] = system: AML cells harboring Flt-3 ITD; assay: Apoptosis of AML cells (Annexin V and PI staining); type: cell-based; details: 1 uM, 48 h
Experimental: (§1) AML cells or 32D transfectants were treated for 48 h (AML) or 24 h (32D) with 1 uM VI, and the increase in % of apoptotic cells was determined using Annexin V and PI staining.

[7] = system: 32D transfected with ITD or point mutated Flt-3; assay: Apoptosis of 32D transfectants (Annexin V and PI staining); type: cell-based; details: 1 uM, 24 h
Experimental: as §1

[8] = GLP mutagenicity and clastogenicity studies (Ames, chromosomal aberration, mouse micronucleus)
Experimental: (§2) GLP toxicology studies included negative mutagenicity and clastogenicity studies (Ames, chromosomal aberration, and mouse micronucleus). […] The No Observed Adverse Effect Level (NOAEL) is 10-30 mg/kg/day for rats and 100 mg/kg/day for monkeys.

[9] = in vivo
Experimental: as §2

[10] = system: MV4-11 human acute myeloid leukemia cells; assay: Subcutaneous MV4-11 tumor growth (initial studies); type: in vivo, mice
Description: The Flt-3 ITD mutation has been associated with poor prognosis and reduced remission rates in affected AML patients, making it an attractive target for therapeutic intervention. Studies have shown that mutant Flt-3 ITD receptors dimerize in a Flt-3 ligand-independent manner and auto-phosphorylation of the receptor results in constitutive activation, increased proliferation, and growth factor independence of the mutant cell.

With COc1cc(Nc2ncc(F)c(Nc3ccc4c(n3)NC(=O)C(C)(C)O4)n2)cc(OC)c1OC [Compound III, N4-(2,2-dimethyl-3-oxo-4H-5-pyrido[1,4]oxazin-6-yl)-5-fluoro-N2-(3,4,5-trimethoxyphenyl)-2,4-pyrimidinediamine] the solubility ([1]; aqueous buffer, phosphate buffer at pH=7.5, read-out: measured solubility) was less than 1 µg/mL, the solubility ([1]; water solubility, read-out: Solubility) was 1 to 2 µg/mL (≈ 2.13 to 4.25 µM) and the “differentiation of TEL-Syk-transformed pre-B cells (kappa light chain expression)” value [2] was “induce differentiation”. For the same compound, the “proliferation of TEL-Syk-transformed pre-B cells” value ([2]; DNA content, 36 hours, 2 μM) was “block proliferation”, the “proliferation of Myc-transformed pre-B cells” value [3] was “block the proliferation” and the “proliferation of tumorigenic SLP-65−/− pre-B cell lines” value [4] was “block the proliferation”. The “plasma levels of VI by 6 hours post-dose” value ([5]; female mice, 20, 40 or 80 mg/kg doses of VII) was “virtually undetectable”, the “induced apoptosis of AML cells harboring Flt-3 ITD” value [6] was “uniquely sensitive” and the “apoptosis of 32D transfected with ITD or point mutated Flt-3 vs wt Flt-3” value [7] was “undergo more apoptosis”. For the same compound, the “mutagenicity and clastogenicity (Ames, chromosomal aberration, mouse micronucleus)” value [8] was “negative”, the “28-day toxicity: hematology, bone marrow cellularity” value ([9]; monkey) was “reversible effect” and the “28-day toxicity: hematology, liver transaminase, spleen and thymus size, bone marrow cellularity” value ([9]; rat) was “reversible effect”.
For “N4-(2,2-dimethyl-4-[(dihydrogen phosphonoxy)methyl]-3-oxo-5-pyrido[1,4]oxazin-6-yl)-5-fluoro-N2-(3,4,5-trimethoxyphenyl)-2,4-pyrimidinediamine mono calcium salt [Compound 6]”, the “AUCinf (Compound VI in plasma)” value ([5]; PO 20 mg/kg, Female) was 5362 ng·h/mL, the “AUClast (Compound VI in plasma)” value ([5]; PO 20 mg/kg, Female) was 5351 ng·h/mL and the “C-max (Compound VI in plasma)” value ([5]; PO 20 mg/kg, Female) was 3717 ng/mL. The “T1/2 (Compound VI in plasma)” value ([5]; PO 20 mg/kg, Female) was 35.4 min, the “T-max (Compound VI in plasma)” value ([5]; PO 20 mg/kg, Female) was 0.25 and the “Mean Concentration of Compound VI in Plasma” value (shortened to “Mean Concentration”) ([5]; PO 20 mg/kg, Female, 0.25 hrs) was 3717 ng/mL. For the same compound, the “Mean Concentration” value ([5]; PO 20 mg/kg, Female, 0.5 hrs) was 2240 ng/mL, the “Mean Concentration” value ([5]; PO 20 mg/kg, Female, 1 hrs) was 1737 ng/mL and the “Mean Concentration” value ([5]; PO 20 mg/kg, Female, 2 hrs) was 1438 ng/mL. The “Mean Concentration” value ([5]; PO 20 mg/kg, Female, 4 hrs) was 55.0 ng/mL, the “Mean Concentration” value ([5]; PO 20 mg/kg, Female, 6 hrs) was 13.0 ng/mL and the “AUCinf (Compound VI in plasma)” value ([5]; PO 20 mg/kg, Male) was 11434 ng·h/mL. For the same compound, the “AUClast (Compound VI in plasma)” value ([5]; PO 20 mg/kg, Male) was 10261 ng·h/mL, the “C-max (Compound VI in plasma)” value ([5]; PO 20 mg/kg, Male) was 3377 ng/mL and the “T1/2 (Compound VI in plasma)” value ([5]; PO 20 mg/kg, Male) was 107 min. The “T-max (Compound VI in plasma)” value ([5]; PO 20 mg/kg, Male) was 0.50, the “Mean Concentration” value ([5]; PO 20 mg/kg, Male, 0.25 hrs) was 1872 ng/mL and the “Mean Concentration” value ([5]; PO 20 mg/kg, Male, 0.5 hrs) was 3377 ng/mL. For the same compound, the “Mean Concentration” value ([5]; PO 20 mg/kg, Male, 1 hrs) was 3280 ng/mL, the “Mean Concentration” value ([5]; PO 20 mg/kg, Male, 2 hrs) was 2130 ng/mL and the “Mean Concentration” value ([5]; PO 20 mg/kg, Male, 4 hrs) was 1209 ng/mL. For the same compound, the “Mean Concentration” value ([5]; PO 20 mg/kg, Male, 6 hrs) was 454 ng/mL, the “AUCinf (Compound VI in plasma)” value ([5]; PO 40 mg/kg, Female) was 11625 ng·h/mL and the “AUClast (Compound VI in plasma)” value ([5]; PO 40 mg/kg, Female) was 11498 ng·h/mL. The “C-max (Compound VI in plasma)” value ([5]; PO 40 mg/kg, Female) was 5497 ng/mL, the “T1/2 (Compound VI in plasma)” value ([5]; PO 40 mg/kg, Female) was 50.4 min and the “T-max (Compound VI in plasma)” value ([5]; PO 40 mg/kg, Female) was 1.00. The “Mean Concentration” value ([5]; PO 40 mg/kg, Female, 0.25 hrs) was 5140 ng/mL, the “Mean Concentration” value ([5]; PO 40 mg/kg, Female, 0.5 hrs) was 3597 ng/mL and the “Mean Concentration” value ([5]; PO 40 mg/kg, Female, 1 hrs) was 5497 ng/mL. For the same compound, the “Mean Concentration” value ([5]; PO 40 mg/kg, Female, 2 hrs) was 2823 ng/mL, the “Mean Concentration” value ([5]; PO 40 mg/kg, Female, 4 hrs) was 201 ng/mL and the “Mean Concentration” value ([5]; PO 40 mg/kg, Female, 6 hrs) was 105 ng/mL. For the same compound, the “AUCinf (Compound VI in plasma)” value ([5]; PO 40 mg/kg, Male) was 27170 ng·h/mL, the “AUClast (Compound VI in plasma)” value ([5]; PO 40 mg/kg, Male) was 20831 ng·h/mL and the “C-max (Compound VI in plasma)” value ([5]; PO 40 mg/kg, Male) was 6370 ng/mL. For the same compound, the “T1/2 (Compound VI in plasma)” value ([5]; PO 40 mg/kg, Male) was 138 min, the “T-max (Compound VI in plasma)” value ([5]; PO 40 mg/kg, Male) was 2.00 and the “Mean Concentration” value ([5]; PO 40 mg/kg, Male, 0.25 hrs) was 3587 ng/mL. The “Mean Concentration” value ([5]; PO 40 mg/kg, Male, 0.5 hrs) was 2860 ng/mL, the “Mean Concentration” value ([5]; PO 40 mg/kg, Male, 1 hrs) was 5250 ng/mL and the “Mean Concentration” value ([5]; PO 40 mg/kg, Male, 2 hrs) was 6370 ng/mL. The “Mean Concentration” value ([5]; PO 40 mg/kg, Male, 4 hrs) was 1730 ng/mL, the “Mean Concentration” value ([5]; PO 40 mg/kg, Male, 6 hrs) was 1909 ng/mL and the “AUCinf (Compound VI in plasma)” value ([5]; PO 80 mg/kg, Female) was 27662 ng·h/mL. The “AUClast (Compound VI in plasma)” value ([5]; PO 80 mg/kg, Female) was 27013 ng·h/mL, the “C-max (Compound VI in plasma)” value ([5]; PO 80 mg/kg, Female) was 8193 ng/mL and the “T1/2 (Compound VI in plasma)” value ([5]; PO 80 mg/kg, Female) was 58.2 min. For the same compound, the “T-max (Compound VI in plasma)” value ([5]; PO 80 mg/kg, Female) was 2.00, the “Mean Concentration” value ([5]; PO 80 mg/kg, Female, 0.25 hrs) was 3847 ng/mL and the “Mean Concentration” value ([5]; PO 80 mg/kg, Female, 0.5 hrs) was 7433 ng/mL. For the same compound, the “Mean Concentration” value ([5]; PO 80 mg/kg, Female, 1 hrs) was 7267 ng/mL, the “Mean Concentration” value ([5]; PO 80 mg/kg, Female, 2 hrs) was 8193 ng/mL and the “Mean Concentration” value ([5]; PO 80 mg/kg, Female, 4 hrs) was 2529 ng/mL. The “Mean Concentration” value ([5]; PO 80 mg/kg, Female, 6 hrs) was 465 ng/mL and the subcutaneous tumor growth [10] was “reduced subcutaneous tumor growth”.
